The values below are quoted from earlier work in patent US10183022B2, “Pharmaceutical composition for treating ulcerative colitis” (EA Pharma Co., Ltd., priority 2014, dated 2019).

This data set deals with administered patients. Particulars: among the administered patients, intravenous infusion; cited from earlier work.

In the case of “Infliximab: anti-TNFα antibody, given by intravenous infusion”, the “Patients showing the loss of the response” value is ≤ 70%.
